In the supplement of paper PMC10307832:

What was measured:
Assay in all cases: relative viability (nuclei count vs DMSO), 5 days (fraction); higher = more cells survive
[1] = compound: COc1cc(Nc2ncc3c(n2)-c2ccc(Cl)cc2C(c2c(F)cccc2OC)=NC3)ccc1C(=O)O [Alisertib] + CCNC(=O)c1noc(-c2cc(C(C)C)c(O)cc2O)c1-c1ccc(CN2CCOCC2)cc1 [Luminespib] (partner 0.01 µM)
Procedure, shortened: (§1)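 Relative viability divides the nuclei count in treated wells by that in vehicle wells. Lung cancer cell lines were seeded in 1536-well plates, dosed by pin tool the next day, and fixed and stained after 5 days in one step with final 0.05% Triton X-100, 1% formaldehyde and 1 ug/ml Hoechst. Dosing was a single drug or a fixed anchor-drug dose plus five library-drug doses (not always all listed) in √10 steps, and values are medians of duplicate plates imaged at 4×.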

[2] = compound: COc1cc(Nc2ncc3c(n2)-c2ccc(Cl)cc2C(c2c(F)cccc2OC)=NC3)ccc1C(=O)O [Alisertib] + Cc1cc(Nc2cc(N3CCN(C)CC3)nc(Sc3ccc(NC(=O)C4CC4)cc3)n2)n[nH]1 [Tozasertib] (partner 0.1 µM)
Procedure, shortened: as §1

[3] = compound: COc1cc(Nc2ncc3c(n2)-c2ccc(Cl)cc2C(c2c(F)cccc2OC)=NC3)ccc1C(=O)O [Alisertib] + Cc1nc(NC(=O)N2CCC[C@H]2C(N)=O)sc1-c1ccnc(C(C)(C)C(F)(F)F)c1 [Alpelisib] (partner 2 µM)
Procedure, shortened: as §1

[4] = compound: COc1cc(Nc2ncc3c(n2)-c2ccc(Cl)cc2C(c2c(F)cccc2OC)=NC3)ccc1C(=O)O [Alisertib] + Cc1nc(Nc2ncc(C(=O)Nc3c(C)cccc3Cl)s2)cc(N2CCN(CCO)CC2)n1 [Dasatinib] (partner 0.075 µM)
Procedure, shortened: as §1

Cell Line	relative viability ([1]; first compound 0.005 µM)	relative viability ([1]; first compound 0.01581 µM)	relative viability ([1]; first compound 0.05 µM)	relative viability ([1]; first compound 0.1581 µM)	relative viability ([1]; first compound 0.5 µM)	relative viability ([2]; first compound 0.005 µM)	relative viability ([2]; first compound 0.01581 µM)	relative viability ([2]; first compound 0.05 µM)	relative viability ([2]; first compound 0.1581 µM)	relative viability ([2]; first compound 0.5 µM)	relative viability ([3]; first compound 0.005 µM)	relative viability ([3]; first compound 0.01581 µM)	relative viability ([3]; first compound 0.05 µM)	relative viability ([3]; first compound 0.1581 µM)	relative viability ([3]; first compound 0.5 µM)	relative viability ([4]; first compound 0.005 µM)	relative viability ([4]; first compound 0.01581 µM)	relative viability ([4]; first compound 0.05 µM)	relative viability ([4]; first compound 0.1581 µM)	relative viability ([4]; first compound 0.5 µM)
NCI-H1734	0.172	0.214	0.149	0.146	0.132	0.262	0.231	0.22	0.195	0.188	0.623	0.628	0.444	0.253	0.239	0.449	0.358	0.291	0.181	0.151
NCI-H1755	0.463	0.409	0.255	0.189	0.199	0.6	0.569	0.422	0.386	0.311	0.876	0.852	0.63	0.414	0.248	0.382	0.467	0.356	0.221	0.0862
NCI-H1793	0.171	0.147	0.156	0.127	0.136	0.45	0.231	0.269	0.176	0.185	0.735	0.9	0.383	0.329	0.2	0.397	0.242	0.186	0.11	0.116
NCI-H1915	0.684	0.452	0.151	0.148	0.185	0.404	0.272	0.241	0.193	0.179	0.934	0.808	0.385	0.354	0.199	0.297	0.299	0.295	0.148	0.14
NCI-H1944	0.778	0.676	0.541	0.411	0.15	0.242	0.239	0.258	0.195	0.187	0.788	0.882	0.626	0.41	0.207	0.196	0.217	0.218	0.113	0.113
NCI-H1975	0.199	0.23	0.213	0.177	0.168	0.695	0.65	0.336	0.212	0.124	0.632	0.621	0.295	0.215	0.168	0.298	0.333	0.286	0.153	0.109
NCI-H1993	0.891	0.791	0.558	0.456	0.492	0.572	0.542	0.536	0.524	0.512	0.625	0.652	0.538	0.625	0.573	0.538	0.644	0.474	0.386	0.433
NCI-H2009	0.971	0.972	0.395	0.292	0.264	0.732	0.663	0.427	0.336	0.22	1.15	1.02	0.417	0.375	0.265	0.259	0.292	0.211	0.141	0.129
NCI-H2023	0.807	0.671	0.321	0.127	0.0912	0.419	0.368	0.263	0.215	0.0951	0.571	0.412	0.456	0.351	0.117	0.561	0.492	0.35	0.167	0.0881
NCI-H2085	0.419	0.341	0.309	0.342	0.329	0.723	0.669	0.526	0.476	0.394	0.892	0.91	0.465	0.352	0.314	0.233	0.203	0.207	0.184	0.171
NCI-H2087	0.191	0.136	0.155	0.16	0.115	0.204	0.249	0.126	0.158	0.144	0.939	0.816	0.226	0.203	0.171	0.776	0.628	0.137	0.113	0.123
NCI-H2126	0.785	0.834	0.601	0.274	0.285	0.798	0.637	0.405	0.293	0.288	0.746	0.746	0.384	0.322	0.246	0.55	0.553	0.48	0.231	0.215
NCI-H2170	0.518	0.777	0.317	0.318	0.207	0.658	0.674	0.321	0.261	0.161	0.732	0.749	0.424	0.34	0.199	0.443	0.561	0.403	0.225	0.167
NCI-H2228	0.111	0.117	0.112	0.144	0.186	0.322	0.19	0.147	0.132	0.109	0.781	0.499	0.256	0.133	0.193	0.414	0.416	0.248	0.0768	0.1
NCI-H2347	0.275	0.287	0.429	0.317	0.422	0.517	0.549	0.415	0.401	0.273	0.903	0.877	0.857	0.637	0.436	0.263	0.339	0.275	0.268	0.222
NCI-H2405	0.735	0.619	0.745	0.356	0.285	0.772	0.618	0.308	0.293	0.258	0.817	0.707	0.699	0.42	0.248	0.196	0.202	0.189	0.152	0.132
